According to PMC6661730, “Biochemical characterization of a novel exo-oligoxylanase from Paenibacillus barengoltzii suitable for monosaccharification from corncobs” (Biotechnology for Biofuels, 2019):

Target: T1, PbRex8 (Paenibacillus barengoltzii, UniProt R9L536)
T1 construct: gene C812_03928; full-length ORF, 382 residues (predicted 44 kDa), no signal peptide; N-terminal His6-tag from pET-28a(+) (NheI/XhoI), tag cleavage not mentioned; E. coli BL21(DE3); monomer; primers encode N-terminal MKEHQG and C-terminal RGEA
T1 sequence (R9L536 entry or part of it): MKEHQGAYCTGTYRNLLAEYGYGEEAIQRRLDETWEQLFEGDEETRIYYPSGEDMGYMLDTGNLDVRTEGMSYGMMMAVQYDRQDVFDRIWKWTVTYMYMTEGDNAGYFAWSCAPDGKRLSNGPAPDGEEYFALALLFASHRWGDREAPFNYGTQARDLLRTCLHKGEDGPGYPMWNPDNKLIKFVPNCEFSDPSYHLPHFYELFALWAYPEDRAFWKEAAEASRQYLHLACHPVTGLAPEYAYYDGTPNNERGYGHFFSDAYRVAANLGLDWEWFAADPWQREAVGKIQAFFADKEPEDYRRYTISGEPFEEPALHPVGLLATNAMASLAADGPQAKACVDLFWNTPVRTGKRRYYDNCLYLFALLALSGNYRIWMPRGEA
Assay: HPLC-RID xylose release, nonlinear regression
Assay type: biochemical
Settings: competitive; X3 as substrate, 5 mM citrate pH 5.5, 55 °C

## OC1OC[C@@H](O)[C@H](O)[C@H]1O (stereo partly shown) [X, xylose]
  Ki: 12.9 ± 0.6 mM
